Measurements: patent publication US20070129344A1, “Bicyclic 6-alkylidene-penem beta-lactamase inhibitors and beta-lactam antibiotic combination: a broad spectrum antibiotic” (priority 2005, published 2007)
Read-outs that look alike come from different tables or passages of the source.

Key:
[1] = system: E. coli GC 2146 (TEM-1; SHV-7); assay: MIC microbroth dilution; β-lactamase class A, A (ESBL); type: cell-based
Description: (§1) The in vitro activities of the antibiotics were determined by the microbroth dilution method as recommended by the National Committee for Clinical Laboratory Standards (NCCLS). (NCCLS. 2000. Methods for Dilution Antimicrobial Susceptibility Tests for Bacteria That Grow Aerobically; Approved Standards: M7-A5, vol. 19. National Committee for Clinical Laboratory Standards, Villanova, Pa.). Mueller-Hinton II broth (MHBII)(BBL Cockeysville, Md.), was used for the testing procedure. […]. The plates were incubated for 18-22 hours at 35° C. in ambient air.

[2] = system: E. coli GC 2015 (TEM-10 + SHV-1); assay: as above; type: cell-based
Description: as §1

[3] = system: E. coli GC 1695 (TEM-1 + TEM-10); assay: as above; type: cell-based
Description: as §1

[4] = system: E. coli GC 1499 (TEM-4 + TEM-1); assay: as above; type: cell-based
Description: as §1

[5] = system: E. coli GC 6260 (TEM-1 + SHV-5); assay: as above; type: cell-based
Description: as §1

[6] = system: E. coli GC 5901 (TEM-1 and SHV-8); assay: as above; type: cell-based
Description: as §1

[7] = system: A. baumannii GC 7687 AmpC; assay: MIC microbroth dilution; β-lactamase class C; type: cell-based
Description: as §1

[8] = system: A. baumannii GC 7684 AmpC, AmpC; assay: MIC microbroth dilution; β-lactamase class C; type: cell-based
Description: as §1

[9] = system: K. pneumoniae GC 7820 Act 1; assay: MIC microbroth dilution; β-lactamase class C; type: cell-based
Description: as §1

[10] = system: E. cloacae PT 1494 Inducible AmpC; assay: MIC microbroth dilution; β-lactamase class C; type: cell-based
Description: as §1

[11] = system: E. cloacae GC 1712 AmpC-inducible; assay: MIC microbroth dilution; β-lactamase class C; type: cell-based
Description: as §1

[12] = system: C. freundii GC 4164 Inducible AmpC; assay: MIC microbroth dilution; β-lactamase class C; type: cell-based
Description: as §1

[13] = system: P. aeruginosa ATCC 27853 AmpC-inducable; assay: MIC microbroth dilution; β-lactamase class C; type: cell-based
Description: as §1

[14] = system: E. cloacae GC 6991 (AmpC); assay: MIC microbroth dilution; β-lactamase class C; type: cell-based
Description: as §1

[15] = system: K. pneumoniae GC 7822 Act 1; assay: MIC microbroth dilution; β-lactamase class C; type: cell-based
Description: as §1

[16] = system: P. aeruginosa GC 1763 AmpC-inducible; assay: MIC microbroth dilution; β-lactamase class C; type: cell-based
Description: as §1

[17] = system: E. cloacae GC 1477 (AmpC); assay: MIC microbroth dilution; β-lactamase class C; type: cell-based
Description: as §1

[18] = system: E. cloacae PT 967 Inducible AmpC; assay: MIC microbroth dilution; β-lactamase class C; type: cell-based
Description: as §1

[19] = system: K. pneumoniae GC 7821 DHA 1; assay: MIC microbroth dilution; β-lactamase class C; type: cell-based
Description: as §1

[20] = system: A. baumannii PT 9158 PTZ-R; assay: MIC microbroth dilution; β-lactamase class not determined; type: cell-based
Description: as §1

[21] = system: A. baumannii PT 8321 PTZ-R; assay: as above; type: cell-based
Description: as §1

[22] = system: K. pn GC 2391 (pl 5.4; 5.6; 7.6; 8.7 B-lactamases); assay: MIC microbroth dilution; β-lactamase class A, A (ESBL), C; type: cell-based, K. pneumoniae
Description: as §1

[23] = system: S. maltophilia GC 1712 (L1); assay: MIC microbroth dilution; β-lactamase class B; type: cell-based
Description: as §1

[24] = system: E. coli GC 4971 OXA-1, TEM-1; assay: MIC microbroth dilution; β-lactamase class A, D; type: cell-based
Description: as §1

[25] = system: P. aeruginosa PT 9236 PTZ-R; assay: MIC microbroth dilution; type: cell-based
Description: as §1

[26] = system: P. aeruginosa PT 8503 PTZ-R; assay: MIC microbroth dilution; type: cell-based
Description: as §1

[27] = system: P. aeruginosa PT 9587 PTZ-R; assay: MIC microbroth dilution; type: cell-based
Description: as §1

[28] = system: P. aeruginosa PT 8411 PTZ-R; assay: MIC microbroth dilution; type: cell-based
Description: as §1

E. coli GC 2920 (IRT-2) = assay: MIC microbroth dilution; β-lactamase class A (IRT); type: cell-based
Description: as §1

E. coli GC 1995 (TEM-10) = assay: MIC microbroth dilution; β-lactamase class A (ESBL); type: cell-based
Description: as §1

[29] = system: E. coli GC 2017 (TEM-10 + pl 6.3; 8.1); assay: as above; type: cell-based
Description: as §1

E. coli GC 6368 (SHV-7) = assay: as above; type: cell-based
Description: as §1

E. coli GC 1684 (TEM-10) = assay: as above; type: cell-based
Description: as §1

E. coli GC 2300 (TEM-28) = assay: as above; type: cell-based
Description: as §1

E. coli GC 2400 (TEM-43) = assay: as above; type: cell-based
Description: as §1

[30] = system: S. typhimurium GC 4197 CTX-M-5; assay: as above; type: cell-based
Description: as §1

[31] = Cefepime alone, control of Compound 2 test
[32] = Escherichia coli, Cefepime alone, control of Compound 1 test, read-out: MIC
[33] = Enterobacter cloacae, Cefepime alone, control of Compound 1 test, read-out: MIC
[34] = Enterobacter cloacae, Cefepime alone, control of Compound 2 test, read-out: MIC
[35] = Escherichia coli, Cefepime alone, control of Compound 2 test, read-out: MIC

Measured: MIC

CO/N=C(\C(=O)N[C@@H]1C(=O)N2C(C(=O)[O-])=C(C[N+]3(C)CCCC3)CS[C@H]12)c1csc(N)n1 [Cefepime, reference compound]
0.5 µg/mL: [9]; Klebsiella pneumoniae, GC7820ACT1, K. pneumoniae GC 7820, Cefepime alone, control of Compound 2 test, read-out: MIC | [14]; [33]
> 16 µg/mL: [1]; [32] | [2]; [32] | [3]; [32] | [4]; [32] | [5]; [32] | [6]; [32] | [15]; Klebsiella pneumoniae, GC7822ACT1, Cefepime alone, control of Compound 1 test, read-out: MIC | [20]; Acinetobacter baumannii, PT9158PTZR, Cefepime alone, control of Compound 1 test, read-out: MIC | [21]; Acinetobacter baumannii, PT8321PTZR, Cefepime alone, control of Compound 1 test, read-out: MIC | [23]; Stenotrophomonas maltophilia, Cefepime alone, control of Compound 1 test, read-out: MIC | [25]; Pseudomonas aeruginosa, PT9236PTZR, Cefepime alone, control of Compound 1 test, read-out: MIC | [29]; [32] | E. coli GC 1684 (TEM-10); [32] | E. coli GC 2400 (TEM-43); [32] | [30]; Salmonella enterica, Cefepime alone, control of Compound 1 test, read-out: MIC
8 µg/mL: [26]; [31] | [26]; Pseudomonas aeruginosa, PT8503PTZR, Cefepime alone, control of Compound 1 test, read-out: MIC | E. coli GC 1995 (TEM-10); [32]
16 µg/mL: [7]; Acinetobacter baumannii, GC7687AMPC, Cefepime alone, control of Compound 1 test, read-out: MIC | [7]; [31] | [8]; Acinetobacter baumannii, Cefepime alone, control of Compound 1 test, read-out: MIC | [8]; [31] | [22]; Klebsiella pneumoniae, Cefepime alone, control of Compound 1 test, read-out: MIC | [28]; [31] | [28]; Pseudomonas aeruginosa, PT8411PTZR, Cefepime alone, control of Compound 1 test, read-out: MIC | E. coli GC 1995 (TEM-10); [35] | E. coli GC 2300 (TEM-28); [31] | E. coli GC 2300 (TEM-28); [32]
0.12 µg/mL: [11]; [31] | [11]; [33] | [18]; [31] | [18]; [33]
2 µg/mL: [13]; [31] | [13]; Pseudomonas aeruginosa, ATCC27853, Cefepime alone, control of Compound 1 test, read-out: MIC | [16]; [31] | [16]; Pseudomonas aeruginosa, Cefepime alone, control of Compound 1 test, read-out: MIC | [17]; [34] | [24]; [32] | E. coli GC 6368 (SHV-7); [35]
1 µg/mL: [12]; [31] | [12]; Citrobacter freundii, Cefepime alone, control of Compound 1 test, read-out: MIC | [14]; [34] | E. coli GC 6368 (SHV-7); [32]
4 µg/mL: [17]; [33] | [22]; Klebsiella pneumoniae, Cefepime alone, control of Compound 2 test, read-out: MIC | [24]; [35] | [27]; [31] | [27]; Pseudomonas aeruginosa, PT9587PTZR, Cefepime alone, control of Compound 1 test, read-out: MIC
0.25 µg/mL: [9]; Klebsiella pneumoniae, GC7820ACT1, K. pneumoniae GC 7820, Cefepime alone, control of Compound 1 test, read-out: MIC | [10]; [31] | [10]; [33] | [19]; Klebsiella pneumoniae, GC7821DHA1, K. pneumoniae GC 7821, Cefepime alone, control of Compound 1 test, read-out: MIC
0.06 µg/mL: [19]; Klebsiella pneumoniae, GC7821DHA1, K. pneumoniae GC 7821, Cefepime alone, control of Compound 2 test, read-out: MIC | E. coli GC 2920 (IRT-2); [31] | E. coli GC 2920 (IRT-2); [32]
>16 µg/mL: [1]; [31] | [2]; [31] | [3]; [31] | [4]; [31] | [5]; [31] | [6]; [31] | [15]; [31] | [20]; [31] | [21]; [31] | [23]; [31] | [25]; [31] | [29]; [31] | E. coli GC 1684 (TEM-10); [31] | E. coli GC 2400 (TEM-43); [31] | [30]; [31]

O=C([O-])C1=CS[C@@H]2/C(=C\c3cn4c(n3)CCC4)C(=O)N12.[Na+] [Compound 1, (5R), (6Z)-6-(6,7-Dihydro-5H-pyrrolo[1,2-a]imidazol-2-ylmethylene)-7-oxo-4-thia-1-aza-bicyclo[3.2.0]hept-2-ene-2-carboxylic Acid, Sodium Salt]
2 µg/mL: [13]; Cefepime + 4 ug/ml Compound 1 | [26]; Cefepime + 4 ug/ml Compound 1 | [27]; Cefepime + 4 ug/ml Compound 1
4 µg/mL: [6]; Cefepime + 4 ug/ml Compound 1 | [28]; Cefepime + 4 ug/ml Compound 1
0.12 µg/mL: [1]; Cefepime + 4 ug/ml Compound 1 | [11]; Cefepime + 4 ug/ml Compound 1 | [24]; Cefepime + 4 ug/ml Compound 1 | [29]; Cefepime + 4 ug/ml Compound 1
0.50 µg/mL: [4]; Cefepime + 4 ug/ml Compound 1 | [14]; Cefepime + 4 ug/ml Compound 1 | [15]; Cefepime + 4 ug/ml Compound 1 | [22]; Cefepime + 4 ug/ml Compound 1 | E. coli GC 2400 (TEM-43); Cefepime + 4 ug/ml Compound 1
8 µg/mL: [8]; Cefepime + 4 ug/ml Compound 1
>16 µg/mL: [21]; Cefepime + 4 ug/ml Compound 1
0.25 µg/mL: [2]; Cefepime + 4 ug/ml Compound 1 | [9]; K. pneumoniae GC 7820, Cefepime + 4 ug/ml Compound 1 | [17]; Cefepime + 4 ug/ml Compound 1 | E. coli GC 2300 (TEM-28); Cefepime + 4 ug/ml Compound 1
16 µg/mL: [7]; Cefepime + 4 ug/ml Compound 1 | [20]; Cefepime + 4 ug/ml Compound 1 | [23]; Cefepime + 4 ug/ml Compound 1 | [25]; Cefepime + 4 ug/ml Compound 1
0.06 µg/mL: [10]; Cefepime + 4 ug/ml Compound 1 | [12]; Cefepime + 4 ug/ml Compound 1 | [18]; Cefepime + 4 ug/ml Compound 1 | E. coli GC 2920 (IRT-2); Cefepime + 4 ug/ml Compound 1 | E. coli GC 1995 (TEM-10); Cefepime + 4 ug/ml Compound 1 | E. coli GC 1684 (TEM-10); Cefepime + 4 ug/ml Compound 1
0.03 µg/mL: [3]; Cefepime + 4 ug/ml Compound 1 | [5]; Cefepime + 4 ug/ml Compound 1 | [19]; K. pneumoniae GC 7821, Cefepime + 4 ug/ml Compound 1 | E. coli GC 6368 (SHV-7); Cefepime + 4 ug/ml Compound 1
1 µg/mL: [16]; Cefepime + 4 ug/ml Compound 1 | [30]; Cefepime + 4 ug/ml Compound 1
